Reference: US5686418A, “Prolonging survival of transplanted pancreatic cells” (Biomeasure Incorporated, priority 1996, dated 1997)
pKi: −log10 of the molar value. Like-named read-outs stand apart in the source and are kept apart here. Where a SMILES comes first, the peptide text is derived from it. Bridges are numbered along the chain shown (N, C = ends). [ ]: non-standard residue; d: D form.

What was measured:
human SSTR-1 = human SSTR-1 (Homo sapiens, UniProt P30872); test: Somatostatin receptor binding assay, hSSTR-1
Sequence of human SSTR-1 (P30872 whole entry, the tested form may be a part): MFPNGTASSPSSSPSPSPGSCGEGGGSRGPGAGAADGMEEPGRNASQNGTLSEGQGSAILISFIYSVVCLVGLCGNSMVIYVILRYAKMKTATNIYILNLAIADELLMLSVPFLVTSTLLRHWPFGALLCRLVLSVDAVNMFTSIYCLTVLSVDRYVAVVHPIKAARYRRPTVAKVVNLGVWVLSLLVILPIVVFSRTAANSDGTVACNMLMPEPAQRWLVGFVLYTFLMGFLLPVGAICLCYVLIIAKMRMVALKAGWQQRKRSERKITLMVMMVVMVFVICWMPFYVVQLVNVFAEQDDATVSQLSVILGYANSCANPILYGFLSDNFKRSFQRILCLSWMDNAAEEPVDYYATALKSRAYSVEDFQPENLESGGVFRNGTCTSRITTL
Description: (§1) The human SSTR-1, SSTR-2, SSTR-3, SSTR-4, and SSTR-5 cDNA clones have been described (SSTR-1 and SSTR-2 in Yamada, Y., et al., Proc. Natl. Acad. Sci. USA., 89:251-255 (1992); SSTR-3 in Yamade, et al., Mol. Endocrinol. 6:2136-2142 (1993); and SSTR-4 and SSTR-5 in Yamada, et al., Biochem. Biophys. Res. Commun. 195:844-852 (1993)) and are also available from American Type Culture Collection (ATCC, Rockville, Md.) (ATCC Nos. 79044 (SSTR-1), 79046 (SSTR-2), and 79048 (SSTR-3)). […] Restriction endonucleases are available from New England Biolabs (Beverly, Mass.). This cDNA fragment was inserted into the mammalian expression vector, pCMV (Russell, D., et al., J. Biol. Chem., 264:8222-8229 (1989)), using standard molecular biology techniques (see e.g., Maniatis, T., et al., Molecular Cloning--A Laboratory Manual, Cold Spring Harbor Laboratory, 1982) to produce the expression plasmid, pCMV-human SSTR-1 through pCMV-human SSTR-5. Other mammalian expression vectors include pcDNA1/Amp (Invitrogen, Sandlesy, Calif.). The expression plasmids were introduced into the suitable bacterial host, E. Coli HB101 (Stratagene, La Jolla, Calif.) and plasmid DNAs, for transfection, were prepared on Cesium Chloride gradients.
(§2) CHO-K1 (ovary, Chinese hamster) cells were obtained from ATCC (ATCC No. CCL 61). […]

human SSTR-2 = human SSTR-2 (Homo sapiens, UniProt P30874); test: Somatostatin receptor binding assay, hSSTR-2
Sequence of human SSTR-2 (P30874 whole entry): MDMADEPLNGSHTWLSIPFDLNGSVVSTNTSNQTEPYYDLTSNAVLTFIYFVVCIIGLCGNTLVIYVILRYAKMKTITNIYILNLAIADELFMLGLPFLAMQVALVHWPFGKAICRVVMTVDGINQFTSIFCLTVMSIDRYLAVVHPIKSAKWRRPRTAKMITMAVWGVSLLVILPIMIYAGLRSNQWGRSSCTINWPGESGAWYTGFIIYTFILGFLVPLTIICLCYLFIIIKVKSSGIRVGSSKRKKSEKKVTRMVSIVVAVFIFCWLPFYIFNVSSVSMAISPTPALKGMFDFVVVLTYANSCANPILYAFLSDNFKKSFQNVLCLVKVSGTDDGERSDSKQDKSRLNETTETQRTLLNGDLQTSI
Description: as §1, §2

human SSTR-3 = human SSTR-3 (Homo sapiens, UniProt P32745); test: Somatostatin receptor binding assay, hSSTR-3
Sequence of human SSTR-3 (P32745 whole entry): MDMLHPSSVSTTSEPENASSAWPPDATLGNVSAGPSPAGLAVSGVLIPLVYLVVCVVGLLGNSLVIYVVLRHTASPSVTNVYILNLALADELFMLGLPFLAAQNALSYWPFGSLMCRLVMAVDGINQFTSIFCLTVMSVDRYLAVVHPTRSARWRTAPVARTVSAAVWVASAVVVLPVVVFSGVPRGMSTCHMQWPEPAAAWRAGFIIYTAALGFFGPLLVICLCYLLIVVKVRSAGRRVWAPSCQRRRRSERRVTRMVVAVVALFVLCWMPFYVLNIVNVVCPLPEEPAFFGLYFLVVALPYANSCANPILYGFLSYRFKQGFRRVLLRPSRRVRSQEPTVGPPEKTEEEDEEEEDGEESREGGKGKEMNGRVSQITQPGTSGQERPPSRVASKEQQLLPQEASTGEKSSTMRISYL
Description: as §1, §2

human SSTR-4 = human SSTR-4 (Homo sapiens, UniProt P31391); test: Somatostatin receptor binding assay, hSSTR-4
Sequence of human SSTR-4 (P31391 whole entry): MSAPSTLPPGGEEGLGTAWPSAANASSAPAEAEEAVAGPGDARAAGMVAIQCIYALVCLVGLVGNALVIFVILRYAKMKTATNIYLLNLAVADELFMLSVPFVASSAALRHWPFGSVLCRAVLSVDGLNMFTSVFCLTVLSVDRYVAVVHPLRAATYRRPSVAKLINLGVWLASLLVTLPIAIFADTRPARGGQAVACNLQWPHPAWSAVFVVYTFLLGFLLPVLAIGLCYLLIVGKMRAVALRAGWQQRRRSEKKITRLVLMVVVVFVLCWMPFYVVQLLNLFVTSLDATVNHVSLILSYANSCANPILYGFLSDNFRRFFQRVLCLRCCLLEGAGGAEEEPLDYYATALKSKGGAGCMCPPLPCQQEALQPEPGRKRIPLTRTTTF
Description: as §1, §2

human SSTR-5 = human SSTR-5 (Homo sapiens, UniProt P35346); test: Somatostatin receptor binding assay, hSSTR-5
Sequence of human SSTR-5 (P35346 whole entry): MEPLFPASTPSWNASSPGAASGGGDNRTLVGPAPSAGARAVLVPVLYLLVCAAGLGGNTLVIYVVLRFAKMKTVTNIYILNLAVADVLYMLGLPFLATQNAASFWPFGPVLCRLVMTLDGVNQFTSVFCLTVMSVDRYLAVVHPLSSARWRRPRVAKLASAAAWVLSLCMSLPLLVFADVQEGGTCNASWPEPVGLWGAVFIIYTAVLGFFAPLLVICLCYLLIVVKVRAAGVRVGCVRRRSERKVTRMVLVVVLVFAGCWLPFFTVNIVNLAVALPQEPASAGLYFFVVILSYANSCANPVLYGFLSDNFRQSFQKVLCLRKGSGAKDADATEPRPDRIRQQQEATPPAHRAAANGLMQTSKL
Description: as §1, §2

C[C@@H](O)[C@H](NC(=O)[C@H](Cc1ccccc1)NC(=O)[C@@H](NC(=O)[C@H](CCCCN)NC(=O)[C@@H](Cc1c[nH]c2ccccc12)NC(=O)[C@H](Cc1ccccc1)NC(=O)[C@H](Cc1ccccc1)NC(=O)[C@H](N)Cc1ccccc1)[C@@H](C)O)C(N)=O [BIM-23052, H-D-Phe-Phe-Phe-D-Trp-Lys-Thr-Phe-Thr-NH2] (H-[dF]FF[dW]KTFT-NH2)
pKi (human SSTR-1): 7.01 | pKi (human SSTR-2): 8.24 | pKi (human SSTR-3): 8.25 | pKi (human SSTR-4): 6.90 | pKi (human SSTR-5): 8.91

C[C@@H](O)[C@@H]1NC(=O)[C@H](CCCCN)NC(=O)[C@@H](Cc2c[nH]c3ccccc23)NC(=O)[C@H](Cc2ccccc2)NC(=O)[C@H](Cc2ccccc2)NC(=O)[C@@H](N)CSSC[C@@H](C(N)=O)NC(=O)[C@H](Cc2ccccc2)NC1=O [BM-23268, H-Cys-Phe-Phe-D-Trp-Lys-Thr-Phe-Cys-NH2] (H-CFF[dW]KTFC-NH2; disulfide 1-8)
pKi (human SSTR-1): 7.91 | pKi (human SSTR-2): 8.16 | pKi (human SSTR-3): 7.21 | pKi (human SSTR-5; read-out: Ki hSSTR-5): 9.42
